Results from ChEMBL document CHEMBL1201862, “PubChem BioAssay data set” (2004).
Calls of active or inactive are those of the source.

How the values were obtained:
[1] = tested on: Vero; experiment: cells; type: functional; conditions: Chlorocebus sabaeus
[2] = A Cell Based Secondary Assay To Explore Cytotoxicity of Compounds that Sensitize Mycobacterium Tuberculosis to Beta-Lactam Antibiotics.; type: functional
[3] = tested on: HEK293; experiment: NOD1 signaling inhibitors, primary screen, cell-based, luminescence, uHTS (AID 1578); type: functional; conditions: Homo sapiens
[4] = tested on: HEK293; experiment: cells; type: functional, cell-based; conditions: Homo sapiens
[5] = tested on: HEK293; experiment: NOD2 signaling inhibitors in MDP-stimulated cells, cell-based, uHTS, luminescence (AID 2001); type: functional; conditions: Homo sapiens
[6] = tested on: HEK293; experiment: cells; type: functional, cell-based; conditions: Homo sapiens; remark: listed apart in the source
[7] = tested on: HEK293; experiment: cells; type: functional, cell-based; conditions: Homo sapiens; remark: listed apart in the source
[8] = molecular target: Nucleotide-binding oligomerization domain-containing protein 2 (Homo sapiens, UniProt Q9HC29); experiment: NOD2 signaling inhibitors, cell-based, luminescence, uHTS, HEK293 (AID 1566); type: functional
Chain of Nucleotide-binding oligomerization domain-containing protein 2 (Q9HC29 whole entry, the tested form may be a part): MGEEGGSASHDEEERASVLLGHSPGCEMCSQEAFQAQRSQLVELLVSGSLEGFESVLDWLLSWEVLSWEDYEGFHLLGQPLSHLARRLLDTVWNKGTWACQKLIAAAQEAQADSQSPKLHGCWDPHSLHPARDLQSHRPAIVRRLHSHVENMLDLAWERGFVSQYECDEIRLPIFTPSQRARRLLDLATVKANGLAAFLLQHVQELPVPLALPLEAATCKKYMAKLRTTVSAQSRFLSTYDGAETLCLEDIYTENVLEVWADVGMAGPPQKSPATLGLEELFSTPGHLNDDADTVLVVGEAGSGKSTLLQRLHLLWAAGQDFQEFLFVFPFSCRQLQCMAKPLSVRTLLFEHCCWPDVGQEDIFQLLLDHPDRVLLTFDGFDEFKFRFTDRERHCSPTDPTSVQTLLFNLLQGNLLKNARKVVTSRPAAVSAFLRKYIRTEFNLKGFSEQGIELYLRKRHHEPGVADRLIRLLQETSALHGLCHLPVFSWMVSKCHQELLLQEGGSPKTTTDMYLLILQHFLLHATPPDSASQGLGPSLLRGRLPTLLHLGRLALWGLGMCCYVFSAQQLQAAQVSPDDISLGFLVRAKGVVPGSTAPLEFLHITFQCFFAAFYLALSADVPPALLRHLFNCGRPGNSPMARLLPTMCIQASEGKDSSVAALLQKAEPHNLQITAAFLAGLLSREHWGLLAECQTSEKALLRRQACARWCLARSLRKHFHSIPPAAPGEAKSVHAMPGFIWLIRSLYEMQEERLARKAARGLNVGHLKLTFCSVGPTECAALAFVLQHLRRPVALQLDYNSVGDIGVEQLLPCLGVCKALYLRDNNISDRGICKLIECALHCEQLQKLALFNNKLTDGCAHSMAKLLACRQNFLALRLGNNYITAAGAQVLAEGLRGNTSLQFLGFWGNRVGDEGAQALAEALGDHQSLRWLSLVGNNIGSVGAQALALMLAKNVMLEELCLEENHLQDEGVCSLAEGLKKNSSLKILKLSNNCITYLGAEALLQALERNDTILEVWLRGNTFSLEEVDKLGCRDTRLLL

[9] = control 3'UTR Renilla luciferase suppression, dose response, counter-screen for Shn3 inhibitor project, cell-based, Clone20-Shn3RL, cherry-picked (AID 624133); type: functional
[10] = Shn3 3'UTR reporter inhibitors, dose response, cell-based, Clone20 osteoblasts, firefly luciferase, cherry-picked (AID 624132); type: functional;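 note: firefly luciferase luminescence from reporter carrying the Shn3 3'UTR in osteoblasts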
[11] = molecular target: Induced myeloid leukemia cell differentiation protein Mcl-1 (Homo sapiens, UniProt Q07820); type: functional
Chain of Induced myeloid leukemia cell differentiation protein Mcl-1 (Q07820 whole entry): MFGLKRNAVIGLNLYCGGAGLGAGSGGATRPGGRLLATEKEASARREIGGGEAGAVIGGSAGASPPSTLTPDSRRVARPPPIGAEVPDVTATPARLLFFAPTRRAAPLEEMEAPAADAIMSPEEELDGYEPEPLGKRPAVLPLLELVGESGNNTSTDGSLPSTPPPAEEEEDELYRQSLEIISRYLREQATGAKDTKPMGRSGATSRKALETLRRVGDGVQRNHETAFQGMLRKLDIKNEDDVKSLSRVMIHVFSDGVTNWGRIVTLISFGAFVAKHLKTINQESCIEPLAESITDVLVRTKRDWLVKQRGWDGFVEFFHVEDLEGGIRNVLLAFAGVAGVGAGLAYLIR

[12] = microbe, parasite or virus in culture; type: functional; conditions: Mycobacterium tuberculosis
[13] = molecular target: Prothrombin (Homo sapiens, UniProt P00734); experiment: Thrombin 1536 HTS Dose Response Confirmation. [Related pubchem assays: 1046 (Thrombin 1536 HTS; hits were confirmed in this assay)]; type: functional
[14] = growth suppression of PTEN-null colon cells, dose response, cell-based, HCT116 PTEN knockout (AID 1047); type: functional;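 note: HCT116 colon tumor cells with PTEN knocked out; cells exposed to compound for 60 hours before readout; potency for loss of cell viability measured by luminescence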
[15] = growth suppression of beta-catenin-knockout colon cells, dose response, cell-based, HCT116, human colon tumor (AID 1045); type: functional;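 note: HCT116 colon tumor cells with beta catenin knocked out; cells exposed to compound for 60 hours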
[16] = Luminescence-based cell-based high throughput dose response assay to identify activators of the DAF-12 from the parasite S. stercoralis (ssDAF-12).; type: functional
[17] = molecular target: Paired box protein Pax-8 (Homo sapiens, UniProt Q06710); experiment: inhibitors of PAX8-driven TPO luciferase reporter, dose response, RMG-I cells, cherry-pick (AID 687027); type: functional, cell-based;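 note: luciferase reporter driven by Pax8 target thyroperoxidase promoter measured by SteadyGlo luminescence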
Chain of Paired box protein Pax-8 (Q06710 whole entry): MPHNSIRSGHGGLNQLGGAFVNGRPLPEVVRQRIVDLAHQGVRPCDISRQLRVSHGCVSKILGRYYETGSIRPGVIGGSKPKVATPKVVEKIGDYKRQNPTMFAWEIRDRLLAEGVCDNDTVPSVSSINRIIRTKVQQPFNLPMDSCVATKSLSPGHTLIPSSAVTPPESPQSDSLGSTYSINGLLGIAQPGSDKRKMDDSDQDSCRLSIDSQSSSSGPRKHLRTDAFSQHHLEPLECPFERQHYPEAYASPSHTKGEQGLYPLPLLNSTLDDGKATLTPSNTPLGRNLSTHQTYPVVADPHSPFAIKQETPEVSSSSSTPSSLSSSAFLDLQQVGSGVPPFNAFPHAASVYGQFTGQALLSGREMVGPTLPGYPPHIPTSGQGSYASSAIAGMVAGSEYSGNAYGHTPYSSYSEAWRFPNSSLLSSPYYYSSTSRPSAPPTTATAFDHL

[18] = non-specific cell cytotoxicity, dose response, cytotoxicity control for PAX8 inhibitor project, plate reader, dry powder samples (AID 743021); type: functional, cell-based
[19] = molecular target: Cytochrome P450 2C19 (Homo sapiens, UniProt P33261); experiment: Cytochrome panel assay with activity outcomes. Panel member name: p450-cyp2c19 Compounds with AC50 equal or less than 10 uM are considered active; type: functional; conditions: read-out: AC50
Chain of Cytochrome P450 2C19 (P33261 whole entry): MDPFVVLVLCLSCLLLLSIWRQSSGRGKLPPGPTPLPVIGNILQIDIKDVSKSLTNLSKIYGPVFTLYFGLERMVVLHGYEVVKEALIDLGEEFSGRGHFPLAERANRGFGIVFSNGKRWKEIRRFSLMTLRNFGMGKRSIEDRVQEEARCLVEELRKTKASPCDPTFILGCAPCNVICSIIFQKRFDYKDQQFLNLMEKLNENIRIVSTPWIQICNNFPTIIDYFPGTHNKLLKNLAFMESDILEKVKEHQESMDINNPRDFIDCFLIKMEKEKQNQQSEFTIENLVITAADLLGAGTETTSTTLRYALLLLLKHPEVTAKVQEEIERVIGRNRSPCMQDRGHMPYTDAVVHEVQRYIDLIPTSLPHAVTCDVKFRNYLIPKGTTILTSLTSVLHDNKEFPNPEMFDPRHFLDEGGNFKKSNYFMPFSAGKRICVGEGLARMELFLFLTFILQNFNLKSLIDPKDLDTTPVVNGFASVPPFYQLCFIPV

[20] = inhibitors of intracellular T. cruzi replication, confirmation, NIH3T3 host cells, beta-gal luminescence (AID 2044); type: functional, cell-based;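 note: intracellular parasites grown in NIH/3T3 mouse fibroblasts as host cells; luminescent beta-galactosidase reporter signal from transgenic T. cruzi replicating inside host cells; inhibitors lower the luminescence signal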
[21] = C. albicans growth with fluconazole, confirmation, fluorescence, retest (AID 2467); type: functional, cell-based
[22] = NIH-3T3 fibroblast cytotoxicity, dose response, cytotoxicity control, cell-based, fluorescence, Alamar Blue, secondary assay (AID 2327); type: functional;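 note: NIH-3T3 mouse fibroblasts cultured with fluconazole at 8 µg/mL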
[23] = cytotoxicity toward NIH3T3 fibroblasts, dose response, counter-screen, cell-based, ATP luminescence, mouse fibroblasts (AID 2010); type: functional;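 note: cells exposed to compound for about 90 hours before reading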
[24] = molecular target: Glucose-6-phosphate 1-dehydrogenase (Homo sapiens, UniProt P11413); experiment: human G6PD enzyme inhibitors, dose response, selectivity assay for P. falciparum G6PD inhibitor project, biochemical, fluorescence (AID 504792); type: functional
Chain of Glucose-6-phosphate 1-dehydrogenase (P11413 whole entry): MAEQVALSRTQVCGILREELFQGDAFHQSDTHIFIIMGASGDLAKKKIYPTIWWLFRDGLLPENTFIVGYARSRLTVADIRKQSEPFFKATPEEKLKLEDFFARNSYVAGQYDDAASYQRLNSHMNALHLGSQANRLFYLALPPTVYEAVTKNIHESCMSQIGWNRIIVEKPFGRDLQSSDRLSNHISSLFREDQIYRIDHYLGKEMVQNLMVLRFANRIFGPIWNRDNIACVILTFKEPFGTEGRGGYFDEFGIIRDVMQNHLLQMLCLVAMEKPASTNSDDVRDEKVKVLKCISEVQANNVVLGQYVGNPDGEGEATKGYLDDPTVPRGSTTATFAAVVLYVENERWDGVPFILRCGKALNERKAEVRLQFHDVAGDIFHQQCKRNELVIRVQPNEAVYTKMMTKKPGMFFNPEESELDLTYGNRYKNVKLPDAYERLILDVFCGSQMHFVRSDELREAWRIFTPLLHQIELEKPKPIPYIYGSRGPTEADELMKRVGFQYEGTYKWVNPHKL

[25] = intracellular Trypanosoma cruzi inhibitors in host cells – cell-based, plate reader, cherry-pick samples, set 3, dose response (AID 651818); type: functional;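 note: compounds incubated with infected cells for about four days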
[26] = miR-122 activators in hepatoma reporter cells, dose response, cell-based, Huh7 psiCHECK-miR122, Renilla luciferase, cherry-picked (AID 651956); type: functional;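 note: huh7 hepatoma cells stably carrying a psiCHECK-2 miR-122 sensor plasmid; renilla luciferase signal reporting endogenous miR-122 activity after 48 h compound exposure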
[27] = HEK293T cytotoxicity, dose response, cytotoxicity control for miR-122 modulator project, cell-based, inhibitor set, cherry-pick, set 2 (AID 720697); type: functional
[28] = inhibitors of clade B AD8 Env fusion, dose response, cell-based, cherry-pick (AID 652062); type: functional;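 note: luciferase signal from cell-cell fusion driven by HIV-1 clade B AD8 Env; potency is for inhibitors of fusion seen as a drop in luminescence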
[29] = ZM109 Env clade C HIV-1 fusion inhibitors, dose response, HeLa effector, CEM target cells, luciferase, cherry-pick (AID 652058); type: functional, cell-based
[30] = inhibitors of HIV Env-driven cell fusion, dose response, cherry-pick (AID 652057); type: functional, cell-based
[31] = cytotoxicity in HEK-293T cells, dose response, cytotoxicity control for TCR NF-kB inhibitor project, luminescence, T-cell screen hits (AID 489026); type: functional, cell-based;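 note: cells exposed to compound about 14 hours before the viability readout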
[32] = molecular target: T1, Microphthalmia-associated transcription factor (Homo sapiens, UniProt O75030); experiment: TRPM1 promoter luciferase signal decrease, dose response, MITF inhibitor project, cell-based, SK-MEL-5, cherry-picked, set 3 (AID 493073); type: functional
T1 sequence (O75030 whole entry): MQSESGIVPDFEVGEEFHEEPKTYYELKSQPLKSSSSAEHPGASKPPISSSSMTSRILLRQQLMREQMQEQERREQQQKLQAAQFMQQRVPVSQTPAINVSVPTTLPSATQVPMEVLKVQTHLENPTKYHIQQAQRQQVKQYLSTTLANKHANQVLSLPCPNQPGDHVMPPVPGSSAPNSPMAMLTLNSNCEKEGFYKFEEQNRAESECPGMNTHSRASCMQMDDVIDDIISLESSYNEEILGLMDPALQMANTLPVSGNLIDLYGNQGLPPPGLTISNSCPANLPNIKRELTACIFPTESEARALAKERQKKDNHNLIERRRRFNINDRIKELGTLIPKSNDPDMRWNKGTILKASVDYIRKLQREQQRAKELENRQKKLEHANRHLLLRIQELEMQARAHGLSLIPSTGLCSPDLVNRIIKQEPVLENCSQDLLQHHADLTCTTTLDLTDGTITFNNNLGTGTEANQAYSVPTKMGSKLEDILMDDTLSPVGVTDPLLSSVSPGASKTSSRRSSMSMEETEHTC

[33] = tested on: HEK293; experiment: inhibitors of LMP1-driven NF-kB reporter, dose response, cell-based, HEK293, luciferase, cherry-pick (AID 588343); type: functional; conditions: Homo sapiens
[34] = cells; type: functional, cell-based
[35] = cells; type: functional, cell-based; remark: listed apart in the source
[36] = molecular target: T2, Bcl-2-related protein A1 (Mus musculus, UniProt Q07440); type: functional;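 note: confirmatory dose–response counterscreen on Bfl-1, used to check hits from a UBC13 polyubiquitin inhibitor campaign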
T2 sequence (Q07440 whole entry): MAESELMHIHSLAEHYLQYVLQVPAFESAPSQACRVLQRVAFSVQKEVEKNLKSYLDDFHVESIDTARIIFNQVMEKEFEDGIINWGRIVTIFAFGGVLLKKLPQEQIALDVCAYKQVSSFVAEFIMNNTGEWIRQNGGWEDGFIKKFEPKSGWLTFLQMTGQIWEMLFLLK

[37] = cytotoxicity in HEK-293T cells, dose response, cytotoxicity control for BCR NF-kB inhibitor project, luminescence, B-cell screen hits (AID 489021); type: functional, cell-based;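 note: HEK-293T cells carrying an NF-kB luciferase reporter; cells exposed to compound for about 14 hours before viability readout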

## COc1cccc(-n2c(SCC(=O)c3c[nH]c4ccccc34)nc3ccccc3c2=O)c1
[1]
  CC50: > 25 µM (active)

## O=C(CSc1nc2cc(Cl)c[nH]c-2n1)Nc1cccc(F)c1
[2]
  CC50: > 40 µM (active)

## COC(=O)c1sccc1NC(=O)CSc1ccccc1NS(=O)(=O)c1cc(Cl)ccc1Cl
[3]
  EC50: 6.42 µM (active)
[4]
  IC50: > 20 µM (inactive)
[5]
  IC50: 5.68 µM (active)
[6]
  IC50: 8.22 µM (active)
[7]
  IC50: > 20 µM (inactive)
[8]
  EC50: 6.35 µM (active)

## O=C(c1ccc(S(=O)(=O)c2ccc(F)cc2)c([N+](=O)[O-])c1)N1CCCCCC1
[3]
  EC50: 4.38 µM (active)
[4]
  IC50: > 20 µM (inactive)
[9]
  AC50: 9.68 µM (active)
[5]
  IC50: 5.8 µM (active)
[10]
  AC50: 2.38 µM (active)
[6]
  IC50: 5.7 µM (active)
[7]
  IC50: > 20 µM (inactive)
[8]
  EC50: 14.8 µM (active)

## CC(C)(C)c1ccc(CN2N=Nc3ccccc3S2(=O)=O)cc1
[11]
  IC50: 24.1 µM (active)

## Nc1c2c(nc3ccn(Cc4ccccc4)c(=O)c13)CCC2
[12]
  CC50: > 40 µM (active)

## Cc1cc(S)nc(-c2ccccn2)n1
[2]
  CC50: 31.8 µM (active)

## COC/C=C/C1=CC2=CC(=O)C(C)(OC(=O)c3ccco3)C(=O)C2=CO1 (stereo unspecified)
[11]
  IC50: 3.7 µM (active)

## CC1CCN(CC(=O)Nc2ccccc2C#N)CC1
[13]
  IC50: > 50 µM (not active)

## O=C(NCCN1CCN(Cc2ccccc2)CC1)c1cc2c(O)nc3ccccc3c2s1
[14]
  EC50: 13 µM (active)
[15]
  EC50: 14.3 µM (active)

## CC(=O)Nc1nc(-c2ccc(Cl)cc2)nc(C)c1C(C)=O
[16]
  IC50: > 67.6 µM (inactive)

## CSc1nc(-c2ccccc2)nc(N2CCOCC2)c1C(C)=O
[13]
  IC50: > 50 µM (not active)

## Cc1ccc2c(CC(=O)OCC(=O)Nc3ccc(Cl)cn3)coc2c1
[17]
  AC50: 14.2 µM (active)
[18]
  AC50: 52.7 µM (active)

## CCC(C)Oc1ccccc1C1CC(=O)NC2=C1C(=O)CCC2 (stereo unspecified)
[14]
  EC50: 12.5 µM (active)
[15]
  EC50: 12.7 µM (active)

## O=c1oc(-c2cccnc2)nc2ccccc12
[13]
  IC50: 0.966 µM (active)

## CC(CC(=O)Nc1ccc(Cl)c([N+](=O)[O-])c1)c1ccccc1 (stereo unspecified)
[12]
  CC50: 30.7 µM (active)
[19]
  AC50: 2.51 µM (inconclusive)

## Oc1ccc(CN2CCCCC2)c2cccnc12
[14]
  EC50: 3.45 µM (active)
[15]
  EC50: 3 µM (active)
[20]
  EC50: 1.78 µM (active)
[21]
  EC50: > 38 µM (not active)
[22]
  EC50: > 150 µM (inactive)
[23]
  EC50: 11.4 µM (active)

## O=C(CSc1nc2ccccc2[nH]1)NC1CCCc2ccccc21 (stereo unspecified)
[24]
  IC50: > 80 µM (inactive)

## COc1cc(S(=O)(=O)N2CCOCC2)ccc1NC(=O)COC(=O)COc1ccccc1
[13]
  IC50: 3.63 µM (active)

## Cc1ccc(CNc2nc3ccccc3n2C)cc1
[16]
  IC50: > 67.5 µM (inactive)

## Cc1ccc(CSc2nccc(-c3c(C)nc4ccccn34)n2)cc1
[2]
  CC50: 24.7 µM (active)

## CC1(C)CC(=O)C2=C(C1)N1C(=C(C#N)C2c2ccccc2Cl)N=C(N)c2ccccc21 (stereo unspecified)
[14]
  EC50: 20.4 µM (active)
[15]
  EC50: 22.7 µM (active)

## Cc1cc(F)ccc1N1CCC(N2CCN(CCC(C)C)C(CCO)C2)CC1 (stereo unspecified)
[13]
  IC50: > 50 µM (not active)

## COc1ccc(/C=C2\SC(=S)N(CCC(=O)N3CCCCC3)C2=O)cc1
[1]
  CC50: > 25 µM (active)

## C[C@H](CO)N1C[C@H](C)[C@H](CN(C)C)Oc2c(NC(=O)Nc3ccc(C(F)(F)F)cc3)cccc2C1=O
[25]
  AC50: 3.27 µM (active)

## C[C@@H]1CCCCO[C@@H](CN(C)C(=O)C2CCCCC2)[C@@H](C)CN([C@H](C)CO)C(=O)c2cc(NC(=O)Nc3ccc(C(F)(F)F)cc3)ccc2O1
[25]
  AC50: 1.91 µM (active)

## C[C@H]1CN([C@@H](C)CO)C(=O)c2cc(NS(=O)(=O)c3ccc(Cl)cc3)ccc2O[C@H]1CN(C)S(=O)(=O)c1ccc(Cl)cc1
[25]
  AC50: 4.63 µM (active)

## C[C@@H]1CN([C@@H](C)CO)C(=O)Cc2cc(NS(=O)(=O)c3cccs3)ccc2O[C@@H]1CN(C)Cc1ccc(C(=O)Nc2ccccc2N)cc1
[25]
  AC50: 2.33 µM (active)

## C/C=C/c1ccc2c(c1)O[C@H](CN(C)C(=O)c1cnccn1)[C@H](C)CN([C@@H](C)CO)S2(=O)=O
[26]
  AC50: 26.6 µM (active)
[27]
  AC50: 10.3 µM (active)

## CC(C)NC(=O)Nc1ccc2c(c1)CC(=O)N([C@H](C)CO)C[C@H](C)[C@H](CN(C)S(=O)(=O)c1cccs1)O2
[28]
  AC50: 12.8 µM (active)
[29]
  AC50: 4.72 µM (active)
[30]
  AC50: 7.82 µM (active)

## COc1cccc(/C=N/Nc2ncnc3c2ncn3Cc2ccccc2)c1O
[31]
  IC50: > 80 µM (inactive)
[32]
  AC50: 4.6 µM (active)
[33]
  AC50: 4.68 µM (active)
[34]
  EC50: > 350 µM (not active)
[35]
  EC50: 6.75 µM (active)

## COC(=O)C[C@@H]1C[C@H]2c3cc(NS(=O)(=O)c4cccc(OC)c4)ccc3O[C@H]2[C@@H](CO)O1
[28]
  AC50: 66.1 µM (active)
[29]
  AC50: 3.74 µM (active)

## COc1cc2c3c(c1)c(/N=N/C(=N)S)c(O)n3C(C)(C)C=C2C
[36]
  IC50: > 20 µM (inactive)
[37]
  IC50: > 80 µM (inactive)

## O=C(O)c1ccc(N/N=C/C=C/c2ccccc2[N+](=O)[O-])cc1
[16]
  IC50: > 67.6 µM (inactive)

## O=C(N/N=C/c1ccc(-c2cccc(C(F)(F)F)c2)o1)c1ccccc1O
[2]
  CC50: 11.5 µM (active)
